Like-named read-outs stand apart in the source and are kept apart here.
Assays:
[1] = test system: MCF-7 breast adenocarcinoma cells; experiment: MCF-7 Proliferation Assay (tritiated thymidine); format: cell-based; settings: MCF-7 cells, 48 hours with drug, tritiated thymidine pulse 4 hours
Procedure: MCF-7 breast adenocarcinoma cells (ATCC HTB 22) were maintained in MEM (minimal essential medium, phenol red-free, Sigma, St. Louis, Mo.) supplimented with 10% fetal bovine serum (FBS) (V/V), L-glutamine ([…]), sodium pyruvate (1 mM), HEPES {(N-[2-hydroxyethyl]piperazine-N′-[2-ethanesulfonic acid]10 mM}, non-essential amino acids and bovine insulin (1 ug/mL) (maintenance medium). Ten days prior to assay, MCF-7 cells were switched to maintenance medium supplemented with 10% dextran coated charcoal stripped fetal bovine serum (DCC-FBS) assay medium) in place of 10% FBS to deplete internal stores of steroids. MCF-7 cells were removed from maintenance flasks using cell dissociation medium (Ca++/Mg++ free HBSS (phenol red-free) supplemented with 10 mM HEPES and 2 mM EDTA). Cells were washed twice with assay medium and adjusted to 80,000 cells/mL. Approximately 100 μL (8,000 cells) were added to flat-bottom microculture wells (Costar 3596) and incubated at 37° C. in a 5% CO2 humidified incubator for 48 hours to allow for cell adherence and equilibration after transfer. Serial dilutions of drugs or DMSO as a diluent control were prepared in assay medium and 50 μL transferred to triplicate microcultures followed by 50 μL assay medium for a final volume of 200 μL. After an additional 48 hours at 37° C. in a 5% CO2 humidified incubator, microcultures were pulsed with tritiated thymidine (1 uCi/well) for 4 hours. Cultures were terminated by freezing at −70° C. for 24 hours followed by thawing and harvesting of microcultures using a Skatron Semiautomatic Cell Harvester. Samples were counted by liquid scintillation using a Wallac BetaPlace β counter. Results in Table 4 below show the IC50 for certain compounds of the present invention.

[2] = test system: ovariectomized (OVX) female Sprague Dawley rats; experiment: Osteoporosis Test Procedure: distal femur metaphysis X-ray image analysis, OVX rats, 35 days; format: in vivo, rat; settings: for Distal Femur Metaphysis (X-ray Image Analysis-Gray Score): mean ± SEM
From the text: (§1) Seventy-five day old female Sprague Dawley rats (weight range of 200 to 225 g) were obtained from Charles River Laboratories (Portage, Mich.). The animals were either bilaterally ovariectomized (OVX) or exposed to a Sham surgical procedure at Charles River Laboratories, and then shipped after one week. Upon arrival, they were housed in metal hanging cages in groups of 3 or 4 per cage and had ad libitum access to food (calcium content approximately 0.5%) and water for one week. Room temperature was maintained at 22.2°±1.7° C. with a minimum relative humidity of 40%. The photoperiod in the room was 12 hours light and 12 hours dark.
Following the General Preparation Procedure, infra, the rats were treated daily for 35 days (6 rats per treatment group) and sacrificed by carbon dioxide asphyxiation on the 36th day. The 35 day time period was sufficient to allow maximal reduction in bone density, measured as described herein. At the time of sacrifice, the uteri were removed, dissected free of extraneous tissue, and the fluid contents were expelled before determination of wet weight in order to confirm estrogen deficiency associated with complete ovariectomy. […] The uteri were then placed in 10% neutral buffered formalin to allow for subsequent histological analysis.
The right femurs were excised and digitilized x-rays generated and analyzed by an image analysis program (NIH image) at the distal metaphysis. The proximal aspect of the tibiae from these animals were also scanned by quantitative computed tomography.
In accordance with the above procedures, compounds of the present invention and ethynyl estradiol (EE2) in 20% hydroxypropyl β-cyclodextrin were orally administered to test animals. Distal femur metaphysis data presented in Tables 2 and 3 below are the results of formula I compound treatments compared to intact and ovariectomized test animals. Results are reported as the mean ± the standard error of the mean.

[3] = test system: ovariectomized (OVX) female Sprague Dawley rats; settings: rat, in vivo, po, 4 days
Procedure: In the examples illustrating the methods, a post-menopausal model was used in which effects of different treatments upon circulating lipids were determined.
as §1
(§2) Dosing Regimen Tissue Collection. After a one week acclimation period (therefore, two weeks post-OVX) daily dosing with test compound was initiated. 17α-ethynyl estradiol or the test compound were given orally, unless otherwise stated, as a suspension in 1% carboxymethylcellulose or dissolved in 20% cyclodextrin. Animals were dosed daily for 4 days. Following the dosing regimen, animals were weighed and anesthetized with a ketamine: Xylazie (2:1, V:V) mixture and a blood sample was collected by cardiac puncture. The animals were then sacrificed by asphyxiation with CO2, the uterus was removed through a midline incision, and a wet uterine weight was determined.
(§3) Data presented in Table 1 below show comparative results among ovariectomized rats, rats treated with 17α-ethynyl estradiol (EE2; an orally available form of estrogen), and rats treated with certain compounds of the present invention. […] This uterine response to estrogen is well recognized in the art.
(§4) The data presented in the Tables 1 below reflects the response of 5 to 6 rats per treatment.

[4] = test system: Uterine Eosinophil Peroxidase (EPO); settings: rat, in vivo; for Uterine EPO (V. max): po
From the text: as §1, §2
Uterine Eosinophil Peroxidase (EPO) Assay. Uteri were kept at 4° C. until time of enzymatic analysis. The uteri were then homogenized in 50 volumes of 50 mM Tris Buffer (pH −8.0) containing 0.005% Triton X-100. Upon addition of 0.01% hydrogen peroxide and 10 mM O-phenylenediamine (final concentrations) in Tris buffer, increase in absorbance was monitored for one minute at 450 nm. The presence of eosonophils in the uterus is an indication of estrogenic activity of a compound. The maximal velocity of a 15 second interval was determined over the initial, linear portion of the reaction curve.
As is expressed in the below data, estrogenicity also was assessed by evaluating the adverse response to eosinophil infiltration into the uterus.
as §4

[5] = test system: ovariectomized (OVX) female Sprague Dawley rats; experiment: Serum cholesterol in OVX rats, 4-day dosing; format: in vivo, rat
From the text: as §1, §2
Cholesterol Analysis. Blood samples were allowed to clot at room temperature for 2 hours, and serum was obtained following centrifugation for 10 minutes at 3000 rpm. Serum cholesterol was determined using a Boehringer Mannheim Diagnostics high performance cholesterol assay. Briefly the cholesterol was oxidized to cholest-4-en-3-one and hydrogen peroxide. The hydrogen peroxide was then reacted with phenol and 4-aminophenazone in the pressure of peroxidase to produce a p-quinone imine dye, which was read spectrophotemetrically at 500 nm. Cholesterol concentration was then calculated against a standard curve. The entire assay was automated using a Biomek Automated Workstation.
as §3, §4

[6] = Homo sapiens, MCF7, read-out: IC50
[7] = Table 2, oral daily 35 days in 20% cyclodextrin, 0.1 mg/kg, OVX control 5.5 ± 0.6, Sham 30.5 ± 4.3
[8] = oral daily for 4 days, dose 0.1 mg/kg

COc1ccc(-c2ccc3cc(OC)ccc3c2Cc2ccc(OCCN3CCCCC3)cc2)cc1.Cl [Example 1, [2-(4-Methoxyphenyl)-6-methoxynaphthalen-1-yl][4-[2-(1-piperidinyl)ethoxy]phenyl]methane hydrochloride]
IC50 [1, 6]: 100 nM
Distal Femur Metaphysis (X-ray Image Analysis-Gray Score) [2, 7]: 24.7 ± 4.2
Distal Femur Metaphysis (X-ray Image Analysis-Gray Score) ([2]; Table 2, oral daily 35 days in 20% cyclodextrin, 1.0 mg/kg, OVX control 5.5 ± 0.6, Sham 30.5 ± 4.3): 21.7 ± 4.7
Distal Femur Metaphysis (X-ray Image Analysis-Gray Score) ([2]; Table 2, oral daily 35 days in 20% cyclodextrin, 10.0 mg/kg, OVX control 5.5 ± 0.6, Sham 30.5 ± 4.3): 21.9 ± 3.2
Uterine Weight (% increase vs. OVX) ([3]; 0.01 mg/kg): −11.2%
Uterine Weight (% increase vs. OVX) ([3]; 0.1 mg/kg): 23.1%
Uterine Weight (% increase vs. OVX) ([3]; 1 mg/kg): 29.7%
Uterine Weight (% increase vs. OVX) ([3]; 10 mg/kg): 12.2%
Uterine EPO (V. max) ([4]; female, Sprague Dawley, 0.01 mg/kg, 4 days): 4.2
Uterine EPO (V. max) ([4]; female, Sprague Dawley, 0.1 mg/kg, 4 days): 7.2
Uterine EPO (V. max) ([4]; female, Sprague Dawley, 1 mg/kg, 4 days): 4.5
Uterine EPO (V. max) ([4]; female, Sprague Dawley, 10 mg/kg, 4 days): 3.6
inhibition in vivo at 0.01 mg/kg ([5]; Rattus norvegicus, po, 96 h, oral daily for 4 days, dose 0.01 mg/kg, read-out: Serum Cholesterol (% decrease vs. OVX)): 42.9%
inhibition in vivo at 0.1 mg/kg ([5]; Rattus norvegicus, po, 96 h, oral daily for 4 days, dose 0.1 mg/kg, read-out: Serum Cholesterol (% decrease vs. OVX)): 59.9%
inhibition in vivo at 1 mg/kg ([5]; Rattus norvegicus, po, 96 h, oral daily for 4 days, dose 1.0 mg/kg, read-out: Serum Cholesterol (% decrease vs. OVX)): 75%
inhibition in vivo at 10 mg/kg ([5]; Rattus norvegicus, po, 96 h, oral daily for 4 days, dose 10.0 mg/kg, read-out: Serum Cholesterol (% decrease vs. OVX)): 63.4%

C#C[C@]1(O)CC[C@H]2[C@@H]3CCc4cc(O)ccc4[C@H]3CC[C@@]21C [EE2, 17α-ethynyl estradiol, reference compound]
Distal Femur Metaphysis (X-ray Image Analysis-Gray Score) [2, 7]: 32.8 ± 7.9
Distal Femur Metaphysis (X-ray Image Analysis-Gray Score) ([2]; Table 3, oral daily 35 days in 20% cyclodextrin, 0.1 mg/kg, OVX control 7.2 ± 2.2, Sham 44.7 ± 6.4): 44.4 ± 4.8
bone loss / femur density after ovariectomy (in words) ([2]; oral, 35 days): prevented this loss
eosinophil infiltration into the uterus (number of eosinophils in the stromal layer, in words) [4]: substantial, expected increase in eosinophil infiltration
Uterine EPO (V. max) ([4]; 0.1 mg/kg): 116.4
Serum Cholesterol (% decrease vs. OVX) [5, 8]: 81.4%
serum cholesterol compared to ovariectomized control animals (in words) ([5]; oral, 4 days, EE2 at 0.1 mg/kg/day): caused a decrease in serum cholesterol

Oc1ccc(-c2ccc3cc(O)ccc3c2Cc2ccc(OCCN3CCCCCC3)cc2)cc1 [Example 27, [2-(4-Hydroxyphenyl)-6-hydroxynaphthalen-1-yl][4-[2-(1-hexamethyleneiminyl)ethoxy]phenyl]methane]
IC50 [1, 6]: 1 nM

CCN(CC)CCOc1ccc(Cc2c(-c3ccc(O)cc3)ccc3cc(O)ccc23)cc1 [Example 24, [2-(4-hydroxyphenyl)-6-hydroxynaphthalen-1-yl][4-[2-(1-N,N-diethylamino)ethoxy]phenyl]methane]
IC50 [1]: Not active
Uterine EPO (V. max) ([4]; 0.1 mg/kg): 13.8
Uterine EPO (V. max) ([4]; 1 mg/kg): 55.8
Uterine EPO (V. max) ([4]; 10 mg/kg): 36.3
Serum Cholesterol (% decrease vs. OVX) [5, 8]: 69.2%
Serum Cholesterol (% decrease vs. OVX) ([5]; oral daily for 4 days, dose 1.0 mg/kg): 50.0%
Serum Cholesterol (% decrease vs. OVX) ([5]; oral daily for 4 days, dose 10.0 mg/kg): 48.4%
